Measured values reported in patent US12208071B2, “Glucagon receptor antagonists” (LIGAND PHARMACEUTICALS INCORPORATED, priority 2018, dated 2025).
Entries after “also recorded” stand apart in the source; their conditions may differ. Read-outs that look alike come from different tables or passages of the source.

Assays:
Assay type in all cases: physicochemical
[1] = Photostability / solid stability under light (5000 lux)
Protocol: Photostability testing was conducted on Polymorph Form A at 1- and 2-week intervals under light conditions of 5000 lux with the sample held at room temperature. The samples were tested for appearance, purity (HPLC), total related substances (TRS), and XRPD. The only change observed in the photostability samples was a decrease in purity of 0.6% at the 1-week interval.
About 3 mg Polymorph Form A was weighed in glass vials and samples stored under light condition (5000 lx) for 1 week and 2 weeks, separately. Another 20 mg testing compound was weighed in glass vials and the samples stored under light condition for 1 week and 2 weeks, separately. The original compound was stored at −20° C. as the control. The physical appearance, assay, total related substances (TRS) and XRPD pattern were checked at the end of the 1st week and the 2nd week.

[2] = Log P/D by shake-flask method (1-octanol/buffer, HPLC); conditions: for logD: 1-octanol/buffer
Protocol: First, a sample stock solution of Polymorph Form A (100 mmol/L in DMSO) was prepared. 20 μL each of sample DMSO stock solutions was added into 4 ml-vials, then dispensed into 990 μL of 1-octanol-saturated buffer at varied pH and 990 μL of buffer-saturated 1-octanol, vortexed for 3 min and shaken for 1 hr at […], then centrifuged at 2500 rpm for 2 min to get rid of bubbles in the solutions. Finally, buffer-layer sample and 1-octanol-layer sample were separated, and then buffer-layer sample and 1-octanol-layer sample was injected into HPLC, integrated the chromatography and calculated the sample concentrations ratio in both buffer and 1-octanol phase. The Log P/D result was obtained by following equation: […]
The Log P/D value of Polymorph Form A was acquired by shake-flask method using a HPLC system. Since the concentrations of Polymorph Form A in buffer layer are too low to analyze, based on the comparison of blank and standard solution (S/N=5), 0.05 μmol/L was used in buffer layer to calculate Log D.

[3] = Accelerated stability (ICH), 40° C./75% RH; conditions: for Appearance / Assay (anhydrous w/w %) / Chiral purity (area %) / Individual related substance (area %, w/w), RRT 0.46 / Individual related substance (area %, w/w), RRT 0.64 / Individual related substance (area %, w/w), RRT 1.26 / Purity (area %) / Total related substances (area %, w/w) / Water content (%) / XRPD: 40° C./75% RH
Protocol: Polymorph Form A was manufactured under Good Manufacturing Practices (GMP)-compliant conditions at a scale of 1.26 kg. The container closure for the batch consisted of double-lined low density polyethylene bags placed inside fiberboard drums, and the batch was on ICH stability under storage conditions of 25° C./60% relative humidity (RH) and 40° C./75% RH. Long-term stability data through the 36-month interval and accelerated stability data through the 6-month interval are shown in Tables 2 and 3.
Stability samples were tested according to the protocol (Table 5) and to the same specification as the drug substance. The available stability data for samples stored at 25° C./60% RH and 40° C./75% RH are summarized.

[4] = 5000 Lux, open container, 0 weeks
[5] = 5000 Lux, open container, 1 week
[6] = 5000 Lux, open container, 2 weeks

Cc1cc(C)c(-c2ccc(NC(=O)[C@H](Cc3ccc(C(=O)NCCS(=O)(=O)[O-])cc3)c3ccc(-c4ccc(C(C)(C)C)cc4)cc3)cc2)c(C)c1.[Na+] [Polymorph Form A, Sodium (R)-2-(4-(2-(4′-(tert-butyl)-[1,1′-biphenyl]-4-yl)-3-oxo-3-((2′,4′,6′-trimethyl-[1,1′-biphenyl]-4-yl)amino)propyl)benzamido)ethane-1-sulfonate]
Appearance [1, 4]: White powder | Purity (area %) [1, 4]: 99.8 area % | Total related substances (area %, w/w) [1, 4]: 0.25 area %, w/w | Appearance [1, 5]: White powder | Purity (area %) [1, 5]: 99.2 area % | Total related substances (area %, w/w) [1, 5]: 0.25 area %, w/w | XRPD [1, 5]: Same form | Appearance [1, 6]: White powder | Purity (area %) [1, 6]: 99.2 area % | Total related substances (area %, w/w) [1, 6]: 0.25 area %, w/w | XRPD [1, 6]: Same form | stability under light condition (overall) ([1]; 5000 lux, 2 weeks): No significant changes; also recorded: No significant increase in TRS % or decrease in recovery %; also recorded: relatively stable | decrease in purity ([1]; 5000 lux, room temperature, 1-week interval): 0.6% | Appearance ([1]; light (5000 lx), 1 week): white powder | TRS % ([1]; light (5000 lx), 1 week): 0.25% | XRPD pattern ([1]; light (5000 lx), 1 week): Form A | Appearance ([1]; light (5000 lx), 2 weeks): white powder | TRS % ([1]; light (5000 lx), 2 weeks): 0.25% | XRPD pattern ([1]; light (5000 lx), 2 weeks): Form A | Appearance ([1]; −20° C., 0 day (control)): white powder | TRS % ([1]; −20° C., 0 day (control)): 0.25% | XRPD pattern ([1]; −20° C., 0 day (control)): Form A | logD ([2]; pH 1.5, read-out: Log D Rep.1): > 4.32 | logD ([2]; pH 7.4, read-out: Log D Rep.1): > 4.32 | logD ([2]; pH 1.0, read-out: Log D Rep.1): > 4.32 | logD ([2]; pH 2.0, read-out: Log D Rep.1): > 4.32 | logD ([2]; pH 3.0, read-out: Log D Rep.1): > 4.32 | logD ([2]; pH 4.0, read-out: Log D Rep.1): > 4.32 | logD ([2]; pH 11.0, read-out: Log D Rep.1): > 4.32 | logD ([2]; pH range of 1.0 to 11.0, read-out: Log D values): > 4.32 | Log D Average ([2]; pH 1.0): >4.32 | Log D Rep.2 ([2]; pH 1.0): >4.32 | Log D Average ([2]; pH 1.5): >4.32 | Log D Rep.2 ([2]; pH 1.5): >4.32 | Log D Average ([2]; pH 2.0): >4.32 | Log D Rep.2 ([2]; pH 2.0): >4.32 | Log D Average ([2]; pH 3.0): >4.32 | Log D Rep.2 ([2]; pH 3.0): >4.32 | Log D Average ([2]; pH 4.0): >4.32 | Log D Rep.2 ([2]; pH 4.0): >4.32 | Log D Average ([2]; pH 7.4): >4.32 | Log D Rep.2 ([2]; pH 7.4): >4.32 | Log D Average ([2]; pH 11.0): >4.32 | Log D Rep.2 ([2]; pH 11.0): >4.32 | water content ([3]; 40° C./75% RH after the 2-month interval, stabilized level): approximately 10% | Appearance ([3]; 0 months): White | Assay (anhydrous w/w %) ([3]; 0 months): 101.3 w/w % | Chiral purity (area %) ([3]; 0 months): 99.9 area % | Individual related substance (area %, w/w), RRT 0.46 ([3]; 0 months): 0.08 area %, w/w | Individual related substance (area %, w/w), RRT 0.64 ([3]; 0 months): 0.12 area %, w/w | Individual related substance (area %, w/w), RRT 1.26 ([3]; 0 months): 0.05 area %, w/w | Purity (area %) ([3]; 0 months): 99.8 area % | Total related substances (area %, w/w) ([3]; 0 months): 0.25 area %, w/w | Water content (%) ([3]; 0 months): 2.1% | Appearance ([3]; 1 month): White | Assay (anhydrous w/w %) ([3]; 1 month): 102.0 w/w % | Chiral purity (area %) ([3]; 1 month): 99.8 area % | Individual related substance (area %, w/w), RRT 0.46 ([3]; 1 month): 0.08 area %, w/w | Individual related substance (area %, w/w), RRT 0.64 ([3]; 1 month): 0.11 area %, w/w | Individual related substance (area %, w/w), RRT 1.26 ([3]; 1 month): 0.05 area %, w/w | Purity (area %) ([3]; 1 month): 99.8 area % | Total related substances (area %, w/w) ([3]; 1 month): 0.24 area %, w/w | Water content (%) ([3]; 1 month): 8.1% | Appearance ([3]; 2 months): White | Assay (anhydrous w/w %) ([3]; 2 months): 103.4 w/w % | Chiral purity (area %) ([3]; 2 months): 99.8 area % | Individual related substance (area %, w/w), RRT 0.46 ([3]; 2 months): 0.08 area %, w/w | Individual related substance (area %, w/w), RRT 0.64 ([3]; 2 months): 0.12 area %, w/w | Individual related substance (area %, w/w), RRT 1.26 ([3]; 2 months): 0.06 area %, w/w | Purity (area %) ([3]; 2 months): 99.7 area % | Total related substances (area %, w/w) ([3]; 2 months): 0.26 area %, w/w | Water content (%) ([3]; 2 months): 9.8% | Appearance ([3]; 3 months): White | Assay (anhydrous w/w %) ([3]; 3 months): 103.4 w/w % | Chiral purity (area %) ([3]; 3 months): 100.0 area % | Individual related substance (area %, w/w), RRT 0.46 ([3]; 3 months): 0.08 area %, w/w | Individual related substance (area %, w/w), RRT 0.64 ([3]; 3 months): 0.11 area %, w/w | Individual related substance (area %, w/w), RRT 1.26 ([3]; 3 months): 0.05 area %, w/w | Purity (area %) ([3]; 3 months): 99.8 area % | Total related substances (area %, w/w) ([3]; 3 months): 0.24 area %, w/w | Water content (%) ([3]; 3 months): 10.0% | XRPD ([3]; 3 months): Same form | Appearance ([3]; 6 months): White | Assay (anhydrous w/w %) ([3]; 6 months): 103.7 w/w % | Chiral purity (area %) ([3]; 6 months): 100.0 area % | Individual related substance (area %, w/w), RRT 0.46 ([3]; 6 months): 0.08 area %, w/w | Individual related substance (area %, w/w), RRT 0.64 ([3]; 6 months): 0.12 area %, w/w | Individual related substance (area %, w/w), RRT 1.26 ([3]; 6 months): 0.05 area %, w/w | Purity (area %) ([3]; 6 months): 99.8 area % | Total related substances (area %, w/w) ([3]; 6 months): 0.25 area %, w/w | Water content (%) ([3]; 6 months): 10.0% | XRPD ([3]; 6 months): Same form
